Data on three compounds can be found in publication PMC7383964 (Chemmedchem, 2020).

The test system of data set [1] is HEK293T cells. As to conditions: human.
The conditions of data set [2]: rat, microsomes.
Data set [3] in a line: in vitro. As to conditions: male, Sprague-Dawley, rat, microsomes, pH 7.4.

As to `C=CCN1CC[C@]23c4c5ccc(O)c4O[C@H]2C(=O)CC[C@@]3(O)[C@H]1C5` [naloxone], the “Cell density relative to the effect of vehicle (DMSO)” value in data set [1] is 84±5%.

`O=C(/N=N/c1ccc(F)cc1)N1CCCCC1` [Compound 18, (E)‐((4‐Fluorophenyl)diazenyl)(piperidin‐1‐yl)methanone] came in with an Intrinsic clearance in data set [2] of 97 ± 15 µL/min/mg. This compound also registered a half-life in data set [3] of 1.22 ± 0.2 h.

With `O=C(/C=C/c1ccc(F)cc1)N1CCCCC1` [Compound 19, (E)‐3‐(4‐Fluorophenyl)‐1‐(piperidin‐1‐yl)prop‐2‐en‐1‐one], in data set [2], the Intrinsic clearance worked out at 85 ± 20 µL/min/mg. Also, the half-life in data set [3] stood at 1.42 ± 0.3 h.
